Measured values published in patent publication US9676714B2, “Sulfonylindole derivatives and method for preparing the same” (Daewoong Pharmaceutical Co., Ltd., priority 2013, dated 2017).
Where a name gives a salt, the structure may show the parent alone.

Biological target: T1, proton pump (H+/K+-ATPase) (Sus scrofa, UniProt P19156)
T1 construct: Gastric vesicles were prepared from hog stomach via centrifugal separation; from tissue; host or cells: hog stomach (gastric vesicles, method of Rabon et al. 1988)
Test: Measurement of inhibitory effects on proton pump (H+/K+-ATPase) activities
Format: biochemical
Details: hog gastric vesicles, K+-specific H+/K+-ATPase activity, Tris-HCl buffer pH 7.4, 37° C. for 40 minutes, malachite green Pi readout
Method: 1) Preparation of Gastric Vesicles
Gastric vesicles were prepared from hog stomach via centrifugal separation (Edd C. Rabon et al., Preparation of Gastric H^+,K^+-ATPase, Methods in enzymology, vol. 157 Academic Press Inc., (1988), pp. 649-654). The protein contents of the thus prepared gastric vesicles were quantitated by Bicinchoninic Acid (BCA) kit.
2) Measurement of Inhibitory Effects on Proton Pump (H^+/K^+-ATPase) Activities
The inhibitory effects of the compounds of the present invention against proton pump activities were measured using a 96-well plate. In this assay, the K^+-specific H^+/K^+-ATPase activities were calculated based on the difference between the H^+/K^+-ATPase activity in the presence of K^+ and that in the absence of K. In the 96-well plate, 0.5% dimethyl sulfoxide (DMSO) in buffer was added to the negative and positive control groups, and the diluted compounds of the present invention were added to the test groups. All assays were performed in a reaction volume of 100 μl at room temperature. The reaction buffer solution (60 mmol/l Tris-HCl buffer, pH 7.4) including the hog gastric vesicles was added with DMSO and the compounds at various concentrations, and then further added with 10 μl of 10 mmol/1 adenosine triphosphate Tris buffer solution (60 mmol/l Tris-HCl buffer, pH 7.4) to initiate an enzyme reaction. […] The amount of monophosphate (Pi) in the reaction was measured at 570 nm using a micro plate reader (FLUOstar Omega, BMG LABTECH). The inhibition rates (%) were determined from the activity values of control groups and those of test compounds at various concentrations, and the […] of the test compounds were calculated based on the respective inhibition value (%) using the Logistic 4-parameter function of Sigmaplot 8.0 program.

T1 sequence (P19156 whole entry): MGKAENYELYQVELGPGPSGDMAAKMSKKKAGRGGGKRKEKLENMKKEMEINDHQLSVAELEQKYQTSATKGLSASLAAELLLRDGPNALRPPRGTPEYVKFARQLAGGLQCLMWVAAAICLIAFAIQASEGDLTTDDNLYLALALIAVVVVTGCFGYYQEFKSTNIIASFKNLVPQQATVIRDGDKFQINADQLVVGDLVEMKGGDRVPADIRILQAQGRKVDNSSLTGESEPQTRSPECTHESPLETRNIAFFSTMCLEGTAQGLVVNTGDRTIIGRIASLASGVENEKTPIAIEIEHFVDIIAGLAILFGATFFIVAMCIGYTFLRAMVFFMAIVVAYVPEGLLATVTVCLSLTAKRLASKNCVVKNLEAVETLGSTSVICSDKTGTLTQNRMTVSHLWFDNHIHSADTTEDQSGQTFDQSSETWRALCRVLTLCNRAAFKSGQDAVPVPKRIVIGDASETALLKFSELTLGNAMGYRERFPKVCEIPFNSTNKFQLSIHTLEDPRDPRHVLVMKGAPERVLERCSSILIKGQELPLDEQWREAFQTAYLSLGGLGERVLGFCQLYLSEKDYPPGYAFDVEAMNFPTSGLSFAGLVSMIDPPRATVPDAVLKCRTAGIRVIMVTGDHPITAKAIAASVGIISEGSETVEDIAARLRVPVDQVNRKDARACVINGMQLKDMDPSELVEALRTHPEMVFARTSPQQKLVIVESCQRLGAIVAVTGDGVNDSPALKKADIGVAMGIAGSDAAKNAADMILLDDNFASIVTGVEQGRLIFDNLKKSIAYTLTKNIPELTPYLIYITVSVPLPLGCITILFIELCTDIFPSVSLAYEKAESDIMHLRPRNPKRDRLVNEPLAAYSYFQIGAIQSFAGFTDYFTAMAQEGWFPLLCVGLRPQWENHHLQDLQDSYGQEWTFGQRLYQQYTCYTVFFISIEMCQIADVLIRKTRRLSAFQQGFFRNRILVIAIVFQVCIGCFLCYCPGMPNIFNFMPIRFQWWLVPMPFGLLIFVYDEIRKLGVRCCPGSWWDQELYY
T1 sequence (P18434 whole entry partner): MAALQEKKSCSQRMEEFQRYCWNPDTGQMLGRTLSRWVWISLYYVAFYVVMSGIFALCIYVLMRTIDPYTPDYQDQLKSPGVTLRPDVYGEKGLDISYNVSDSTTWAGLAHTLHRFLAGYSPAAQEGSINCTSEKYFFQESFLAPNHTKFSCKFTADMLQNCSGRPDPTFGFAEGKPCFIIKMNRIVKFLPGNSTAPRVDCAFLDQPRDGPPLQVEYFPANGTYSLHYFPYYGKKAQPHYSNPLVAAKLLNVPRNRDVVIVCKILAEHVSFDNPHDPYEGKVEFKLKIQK

Compared with `CCOc1c(F)ccc(Nc2ccc3c(CNC)cn(S(=O)(=O)c4cccnc4)c3c2)c1F` [Example 69, N-(3-ethoxy-2,4-difluorophenyl)-3-((methylamino)methyl)-1-(pyridin-3-ylsulfonyl)-1H-indol-6-amine hydrochloride], `CCOc1ccc(Nc2ccc3c(CNC)cn(S(=O)(=O)c4cccnc4)c3c2)c(F)c1F` [Example 71, N-(4-ethoxy-2,3-difluorophenyl)-3-((methylamino)methyl)-1-(pyridin-3-ylsulfonyl)-1H-indol-6-amine hydrochloride] is 5.5-fold lower in IC50: 2350 nM for the first, 430 nM for the second.

Going from `CNCc1cn(S(=O)(=O)c2cccnc2)c2cc(Nc3ccc(OC)c(F)c3F)ccc12` [Example 70, N-(2,3-difluoro-4-methoxyphenyl)-3-((methylamino)methyl)-1-(pyridin-3-ylsulfonyl)-1H-indol-6-amine hydrochloride] to `CNCc1cn(S(=O)(=O)c2cccnc2)c2cc(Nc3cc(F)c(F)cc3C)ccc12` [Example 73, N-(4,5-difluoro-2-methylphenyl)-3-((methylamino)methyl)-1-(pyridin-3-ylsulfonyl)-1H-indol-6-amine hydrochloride], the IC50 falls from 300 nM to 160 nM (1.9-fold). The second is the more potent here.

Going from `CNCc1cn(S(=O)(=O)c2cccnc2)c2cc(Nc3cc(F)c(F)cc3F)ccc12` [Example 74, 3-((methylamino)methyl)-1-(pyridin-3-ylsulfonyl)-N-(2,4,5-trifluorophenyl)-1H-indol-6-amine hydrochloride] to `CNCc1cn(S(=O)(=O)c2cccnc2)c2cc(Nc3cc(F)c(Br)cc3F)ccc12` [Example 79, N-(4-bromo-2,5-difluorophenyl)-3-((methylamino)methyl)-1-(pyridin-3-ylsulfonyl)-1H-indol-6-amine hydrochloride], the IC50 rises from 450 nM to 1380 nM (3.1-fold). The first is the more potent here.

`CNCc1cn(S(=O)(=O)c2cccnc2)c2cc(Nc3cc(C)c(Cl)cc3C)ccc12` [Example 75, N-(4-chloro-2,5-dimethylphenyl)-3-((methylamino)methyl)-1-(pyridin-3-ylsulfonyl)-1H-indol-6-amine hydrochloride] and `CNCc1cn(S(=O)(=O)c2cccnc2)c2cc(Nc3c(C)cc(Cl)cc3C)ccc12` [Example 85, N-(4-chloro-2,6-dimethylphenyl)-3-((methylamino)methyl)-1-(pyridin-3-ylsulfonyl)-1H-indol-6-amine hydrochloride] are within 1.5-fold of each other in IC50: 290 nM for the first, 370 nM for the second.

`CNCc1cn(S(=O)(=O)c2cccnc2)c2cc(Nc3cc(Cl)c(Cl)cc3Cl)ccc12` [Example 76, 3-((methylamino)methyl)-1-(pyridin-3-ylsulfonyl)-N-(2,4,5-trichlorophenyl)-1H-indol-6-amine hydrochloride] and `CNCc1cn(S(=O)(=O)c2cccnc2)c2cc(Nc3cc(OC)c(Cl)cc3Cl)ccc12` [Example 77, N-(2,4-dichloro-5-methoxyphenyl)-3-((methylamino)methyl)-1-(pyridin-3-ylsulfonyl)-1H-indol-6-amine hydrochloride] are the same in IC50: 350 nM for the first, 350 nM for the second.

First: CNCc1cn(S(=O)(=O)c2cccnc2)c2cc(Nc3cc(F)c(C(F)(F)F)cc3F)ccc12 [Example 78, N-(2,5-difluoro-4-(trifluoromethyl)phenyl)-3-((methylamino)methyl)-1-(pyridin-3-ylsulfonyl)-1H-indol-6-amine hydrochloride]
Second: CNCc1cn(S(=O)(=O)c2cccnc2)c2cc(Nc3c(F)cc(F)cc3F)ccc12 [Example 82, 3-((methylamino)methyl)-1-(pyridin-3-ylsulfonyl)-N-(2,4,6-trifluorophenyl)-1H-indol-6-amine hydrochloride]
The IC50 of the first is 5-fold higher: 2260 nM for the first, 450 nM for the second.

Going from `CNCc1cn(S(=O)(=O)c2cccnc2)c2cc(Nc3c(C)cc(C)cc3C)ccc12` [Example 80, N-mesityl-3-((methylamino)methyl)-1-(pyridin-3-ylsulfonyl)-1H-indol-6-amine hydrochloride] to `CNCc1cn(S(=O)(=O)c2cccnc2)c2cc(Nc3c(C)cc(F)cc3C)ccc12` [Example 81, N-(4-fluoro-2,6-dimethylphenyl)-3-((methylamino)methyl)-1-(pyridin-3-ylsulfonyl)-1H-indol-6-amine hydrochloride], the IC50 rises from 170 nM to 310 nM (1.8-fold).

First: CNCc1cn(S(=O)(=O)c2cccnc2)c2cc(Nc3c(F)cc(F)cc3Cl)ccc12 [Example 83, N-(2-chloro-4,6-difluorophenyl)-3-((methylamino)methyl)-1-(pyridin-3-ylsulfonyl)-1H-indol-6-amine hydrochloride]
Second: CNCc1cn(S(=O)(=O)c2cccnc2)c2cc(Nc3c(Cl)cc(F)cc3Cl)ccc12 [Example 84, N-(2,6-dichloro-4-fluorophenyl)-3-((methylamino)methyl)-1-(pyridin-3-ylsulfonyl)-1H-indol-6-amine hydrochloride]
The IC50 of the first is 1.9-fold higher: 1030 nM for the first, 530 nM for the second. The second is the more potent here.

First: CNCc1cn(S(=O)(=O)c2cccnc2)c2cc(Nc3c(F)cc(Cl)cc3F)ccc12 [Example 86, N-(4-chloro-2,6-difluorophenyl)-3-((methylamino)methyl)-1-(pyridin-3-ylsulfonyl)-1H-indol-6-amine hydrochloride]
Second: CNCc1cn(S(=O)(=O)c2cccnc2)c2cc(Nc3c(F)cc(Br)cc3F)ccc12 [Example 92, N-(4-bromo-2,6-difluorophenyl)-3-((methylamino)methyl)-1-(pyridin-3-ylsulfonyl)-1H-indol-6-amine hydrochloride]
The IC50 of the first is 2.3-fold lower: 650 nM for the first, 1510 nM for the second. The first is the more potent here.

Going from `CNCc1cn(S(=O)(=O)c2cccnc2)c2cc(Nc3c(Cl)cc(Cl)cc3Cl)ccc12` [Example 87, 3-((methylamino)methyl)-1-(pyridin-3-ylsulfonyl)-N-(2,4,6-trichlorophenyl)-1H-indol-6-amine hydrochloride] to `CNCc1cn(S(=O)(=O)c2cccnc2)c2cc(Nc3c(C)cc(Cl)cc3[N+](=O)[O-])ccc12` [Example 94, N-(4-chloro-2-methyl-6-nitrophenyl)-3-((methylamino)methyl)-1-(pyridin-3-ylsulfonyl)-1H-indol-6-amine hydrochloride], the IC50 rises from 400 nM to 780 nM (1.9-fold). The first is the more potent here.

Compared with `CNCc1cn(S(=O)(=O)c2cccnc2)c2cc(Nc3c(F)cc(OC)cc3F)ccc12` [Example 88, N-(2,6-difluoro-4-methoxyphenyl)-3-((methylamino)methyl)-1-(pyridin-3-ylsulfonyl)-1H-indol-6-amine hydrochloride], `CCOc1cc(F)c(Nc2ccc3c(CNC)cn(S(=O)(=O)c4cccnc4)c3c2)c(F)c1` [Example 89, N-(4-ethoxy-2,6-difluorophenyl)-3-((methylamino)methyl)-1-(pyridin-3-ylsulfonyl)-1H-indol-6-amine hydrochloride] is 2-fold higher in IC50: 430 nM for the first, 870 nM for the second.

First: CNCc1cn(S(=O)(=O)c2cccnc2)c2cc(Nc3c(C)cc(Br)cc3C)ccc12 [Example 90, N-(4-bromo-2,6-dimethylphenyl)-3-((methylamino)methyl)-1-(pyridin-3-ylsulfonyl)-1H-indol-6-amine hydrochloride]
Second: CNCc1cn(S(=O)(=O)c2cccnc2)c2cc(Nc3c(F)cc(Br)cc3Br)ccc12 [Example 93, N-(2,4-dibromo-6-fluorophenyl)-3-((methylamino)methyl)-1-(pyridin-3-ylsulfonyl)-1H-indol-6-amine hydrochloride]
The IC50 of the first is 3.1-fold lower: 710 nM for the first, 2220 nM for the second. The first is the more potent here.

Compared with `CNCc1cn(S(=O)(=O)c2cccnc2)c2cc(Nc3c(F)cc(F)cc3Br)ccc12` [Example 91, N-(2-bromo-4,6-difluorophenyl)-3-((methylamino)methyl)-1-(pyridin-3-ylsulfonyl)-1H-indol-6-amine hydrochloride], `CNCc1cn(S(=O)(=O)c2cccnc2)c2cc(Nc3c(F)c(F)cc(F)c3F)ccc12` [Example 95, 3-((methylamino)methyl)-1-(pyridin-3-ylsulfonyl)-N-(2,3,5,6-tetrafluorophenyl)-1H-indol-6-amine hydrochloride] is 1.8-fold lower in IC50: 870 nM for the first, 480 nM for the second. The second is the more potent here.

`CNCc1cn(S(=O)(=O)c2cccnc2)c2cc(Nc3c(F)c(F)c(C(F)(F)F)c(F)c3F)ccc12` [Example 96, 3-((methylamino)methyl)-1-(pyridin-3-ylsulfonyl)-N-(2,3,5,6-tetrafluoro-4-(trifluoromethyl)phenyl)-1H-indol-6-amine hydrochloride] and `CNCc1cn(S(=O)(=O)c2cccnc2)c2cc(Nc3ncccc3F)ccc12` [Example 99, N-(3-fluoropyridin-2-yl)-3-((methylamino)methyl)-1-(pyridin-3-ylsulfonyl)-1H-indol-6-amine hydrochloride] are within 1.5-fold of each other in IC50: 1730 nM for the first, 1380 nM for the second.

Going from `CNCc1cn(S(=O)(=O)c2cccnc2)c2cc(Nc3ccc4c(c3)OCCO4)ccc12` [Example 97, N-(2,3-dihydrobenzo[b][1,4]dioxin-6-yl)-3-((methylamino)methyl)-1-(pyridin-3-ylsulfonyl)-1H-indol-6-amine hydrochloride] to `CNCc1cn(S(=O)(=O)c2cccnc2)c2cc(Nc3ncccc3C)ccc12` [Example 98, 3-((methylamino)methyl)-N-(3-methylpyridin-2-yl)-1-(pyridin-3-ylsulfonyl)-1H-indol-6-amine hydrochloride], the IC50 rises from 670 nM to 1920 nM (2.9-fold). The first is the more potent here.
